# “And” between values parts separate entries of the source, which are not always exact repeats. Equal values may be shown once. These antisense oligonucleotides have a phosphorothioate backbone; sugars and methylation of C are not fully specified.
# How the values were obtained:
# Conditions in all cases: ASO
# MAP2K1 = target: MAP2K1
# PIK3CD = target: PIK3CD
# SMAD3 = target: SMAD3
# SMAD1 = target: SMAD1
# Further: test concentration or dose not given here.
sequence,measurement,setting,value
TCTCAGCCGCATCTCCTT,remaining target (mRNA or protein) (fraction of control),MAP2K1,0.13
AATTCCCCAGAAAGTGGCCA,remaining target (mRNA or protein) (fraction of control),PIK3CD,0.74 and 0.5
GGCGTCGGCTTCTTCTTG,remaining target (mRNA or protein) (fraction of control),MAP2K1,0.3
GAACTCCTGGTTGTTGAA,remaining target (mRNA or protein) (fraction of control),SMAD3,≥ 1
CGGCCGCTCGTGCCGAATTC,remaining target (mRNA or protein) (fraction of control),PIK3CD,0.96 and ≥ 1
CCTCCACTCCTCAGCTGC,remaining target (mRNA or protein) (fraction of control),SMAD1,0.5
TTCTTCCAGCCCAGCAGG,remaining target (mRNA or protein) (fraction of control),SMAD3,≥ 1
CACCCAAACATCAGCTCC,remaining target (mRNA or protein) (fraction of control),MAP2K1,0.41
CCCCGGTCTTAAGCTGGTCC,remaining target (mRNA or protein) (fraction of control),PIK3CD,0.31 and 0.42
GCGTGGCACCAACACAGG,remaining target (mRNA or protein) (fraction of control),SMAD3,≥ 1
ACTACTGCCTGTTGTCTTTG,remaining target (mRNA or protein) (fraction of control),PIK3CD,≥ 1 and 0.44
GGACGGGCAGGAAGGGCTGC,remaining target (mRNA or protein) (fraction of control),PIK3CD,≥ 1 and 0.87
AAGGGCTTCCTGGGTCTG,remaining target (mRNA or protein) (fraction of control),SMAD1,0.53
TGCAGATACTGATCTCGC,remaining target (mRNA or protein) (fraction of control),MAP2K1,0.29
AGTGAGGAAACGGGTGGC,remaining target (mRNA or protein) (fraction of control),SMAD1,0.28
ACAGGCGGCAGTAGATGA,remaining target (mRNA or protein) (fraction of control),SMAD3,≥ 1
GGAGGAGCCACTACTGCCTG,remaining target (mRNA or protein) (fraction of control),PIK3CD,0.98 and 0.55
AAGAGTAGAATCTTGGCA,remaining target (mRNA or protein) (fraction of control),MAP2K1,0.9
CAGATGAAATAGGATTAT,remaining target (mRNA or protein) (fraction of control),SMAD1,0.55
TTTACAGAGAAGTCTCTT,remaining target (mRNA or protein) (fraction of control),SMAD1,≥ 1
AATGAGTGTCATCCCGCCCT,remaining target (mRNA or protein) (fraction of control),PIK3CD,0.4 and 0.14
CTCTCTGGTAGTGGTAGG,remaining target (mRNA or protein) (fraction of control),SMAD3,0.8
CTAGGATGTTGGAGGGCT,remaining target (mRNA or protein) (fraction of control),MAP2K1,0.27
ACTGCCTGTTGTCTTTGGAC,remaining target (mRNA or protein) (fraction of control),PIK3CD,0.74 and 0.44
GCGAGGCGTGGAATGTCT,remaining target (mRNA or protein) (fraction of control),SMAD3,0.54
AACCAGAAGTCTACAGAT,remaining target (mRNA or protein) (fraction of control),MAP2K1,0.69
GAGTTCTACATGAAAAGC,remaining target (mRNA or protein) (fraction of control),MAP2K1,0.66
AGCATTCCAGTGGTTTTA,remaining target (mRNA or protein) (fraction of control),SMAD1,0.31
TGCATCGTGCGGGCTCTT,remaining target (mRNA or protein) (fraction of control),SMAD3,0.43
CCTCGGGAGGAGAACAGTCT,remaining target (mRNA or protein) (fraction of control),PIK3CD,≥ 1 and 0.45
GTACGGAGAGTTGCACTC,remaining target (mRNA or protein) (fraction of control),MAP2K1,0.25
GCCTTCTCGCACCATTTC,remaining target (mRNA or protein) (fraction of control),SMAD3,0.92
CTGACTGCACAGAGTAAT,remaining target (mRNA or protein) (fraction of control),MAP2K1,0.2
GCGCTGGTTACAGTTGGG,remaining target (mRNA or protein) (fraction of control),SMAD3,≥ 1
TGCCCGTTCTGCTCGCCC,remaining target (mRNA or protein) (fraction of control),SMAD3,0.63
GGCTGTAGTCGTCCAGTG,remaining target (mRNA or protein) (fraction of control),SMAD3,0.65
AGCAGCATGGGTTGGTGT,remaining target (mRNA or protein) (fraction of control),MAP2K1,0.41
GGAAGCTGAAGTCTAGCAGC,remaining target (mRNA or protein) (fraction of control),PIK3CD,0.84 and 0.56
CCCACACGATTGTTGAGC,remaining target (mRNA or protein) (fraction of control),SMAD1,0.35
CAGCCGAGAGCCAGGTGCAG,remaining target (mRNA or protein) (fraction of control),PIK3CD,≥ 1 and 0.59
CCAGTCAGCACCGGGTTG,remaining target (mRNA or protein) (fraction of control),SMAD1,0.8
GCAGTTTTGGAGGAGGCT,remaining target (mRNA or protein) (fraction of control),MAP2K1,0.32
AGTAGGCACCAGGTGACCGC,remaining target (mRNA or protein) (fraction of control),PIK3CD,0.77 and 0.67
GCCACTACTGCCTGTTGTCT,remaining target (mRNA or protein) (fraction of control),PIK3CD,0.59 and 0.3
AGTCACAGAGCTTGATCT,remaining target (mRNA or protein) (fraction of control),MAP2K1,0.31
CTTCCGATGTGTCTCCGT,remaining target (mRNA or protein) (fraction of control),SMAD3,0.39
GAACACGCACCTCCCAAT,remaining target (mRNA or protein) (fraction of control),SMAD3,0.4
TGGGTTGAGTAGAGTTCC,remaining target (mRNA or protein) (fraction of control),SMAD3,0.53
CAGGGGGCATCCTGCGTTGT,remaining target (mRNA or protein) (fraction of control),PIK3CD,0.85 and ≥ 1
TAACATTGGAGAGCAGCC,remaining target (mRNA or protein) (fraction of control),SMAD1,0.29
CTGGGAGGAGCCACTACTGC,remaining target (mRNA or protein) (fraction of control),PIK3CD,0.99 and 0.6
CCTCCCCATCCCAAGTCT,remaining target (mRNA or protein) (fraction of control),SMAD3,0.59
TCTTGAGTTTCTTGACCA,remaining target (mRNA or protein) (fraction of control),SMAD3,≥ 1
GTCCAGAAGAGTAGAAAT,remaining target (mRNA or protein) (fraction of control),SMAD1,0.44
GATGACAGTTGTCCTCTCTG,remaining target (mRNA or protein) (fraction of control),PIK3CD,0.84 and 0.46
TGGAATAGTCCAAGAAAGAC,remaining target (mRNA or protein) (fraction of control),PIK3CD,≥ 1
GGTAGGGATTCACGCAGA,remaining target (mRNA or protein) (fraction of control),SMAD3,0.92
CTGCGTTGTTACTTCCCAGA,remaining target (mRNA or protein) (fraction of control),PIK3CD,≥ 1 and 0.41
CCTCCTCTTGGGCCCAGGGC,remaining target (mRNA or protein) (fraction of control),PIK3CD,≥ 1 and 0.71
GCCCTGGTTGACCGACTG,remaining target (mRNA or protein) (fraction of control),SMAD3,0.83
TGCTACTGTCACTAAGGC,remaining target (mRNA or protein) (fraction of control),SMAD1,0.12
CCACCCCAGGGGGCATCCTG,remaining target (mRNA or protein) (fraction of control),PIK3CD,≥ 1 and 0.37
ATGCAAAAGGACAGCAGA,remaining target (mRNA or protein) (fraction of control),SMAD1,0.57
CTGAAGATCGGGCCAGCG,remaining target (mRNA or protein) (fraction of control),SMAD1,0.52
CCTCAGCTGCCAATACCC,remaining target (mRNA or protein) (fraction of control),SMAD1,0.47
ACATTCGGGTCAACTGGT,remaining target (mRNA or protein) (fraction of control),SMAD3,0.48
GGGCTGGGAGGAGCCACTAC,remaining target (mRNA or protein) (fraction of control),PIK3CD,≥ 1
GGAGCCACTACTGCCTGTTG,remaining target (mRNA or protein) (fraction of control),PIK3CD,0.86 and 0.31
CGATGTAGTAGAGCCGCA,remaining target (mRNA or protein) (fraction of control),SMAD3,0.42
